For 19 molecules, Ki results are on record in patent US10077272B2, “Heteroaromatic compounds and their use as dopamine D1 ligands” (PFIZER INC., priority 2014, dated 2018).

Structures can show the parent of a compound that is named as a salt.

Usually Ki stands for the equilibrium dissociation constant of an inhibitor or competing ligand from its target.

In the test the target is Human D1 Receptor (Homo sapiens (Human), UniProt P21728). Description: Human D1 Receptor Binding Assay ([3H]-SCH23390 competition). As to conditions: competition with 0.5 nM [3H]-SCH23390, over-expressing LTK human cell lines, 30 min at 37° C.; values marked ^a are from a single determination; read-out: Human D1 Receptor Binding, Ki (nM); Geometric mean of 2-4 determinations (unless otherwise indicated). As for the experimental part: D1 binding assays were performed using over-expressing LTK human cell lines. […] These ligand and tissue concentrations were used in time course studies to determine linearity and equilibrium conditions for binding. […] The pellet was resuspended in assay buffer [50 mM Tris (pH 7.4@ RT) containing 4 mM MgSO4 and 0.5 mM EDTA]. […] Non-specific binding was determined by radioligand binding in the presence of a saturating concentration of (+)-Butaclamol (10 μM), a D1 antagonist. After a 30 minute incubation period at 37° C., assay samples were rapidly filtered through Unifilter-96 GF/B PEI-coated filter plates and rinsed with 50 mM Tris buffer (pH 7.4 at 4° C.). […] Ki values were calculated according to the Cheng-Prusoff equation: […]
Human D1 Receptor, sequence (P21728 whole entry): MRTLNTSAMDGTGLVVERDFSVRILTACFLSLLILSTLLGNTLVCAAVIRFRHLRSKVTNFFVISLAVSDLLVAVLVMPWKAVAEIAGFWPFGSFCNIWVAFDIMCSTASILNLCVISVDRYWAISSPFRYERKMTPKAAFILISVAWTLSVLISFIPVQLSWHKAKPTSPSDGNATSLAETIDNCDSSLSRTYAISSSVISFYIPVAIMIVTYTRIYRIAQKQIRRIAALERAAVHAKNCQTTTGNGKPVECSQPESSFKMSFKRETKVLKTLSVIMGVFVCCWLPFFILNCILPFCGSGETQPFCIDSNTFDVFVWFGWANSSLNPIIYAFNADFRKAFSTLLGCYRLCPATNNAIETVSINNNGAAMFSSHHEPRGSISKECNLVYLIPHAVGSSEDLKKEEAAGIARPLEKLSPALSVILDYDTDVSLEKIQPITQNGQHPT
With `Cc1cc(Oc2ncnc3occc23)ccc1-c1c(C)ncc(=O)n1C` (single isomer, unassigned) [Example 4, (−)-6-[4-(furo[2,3-d]pyrimidin-4-yloxy)-2-methylphenyl]-1,5-dimethylpyrazin-2(1H)-one], the inhibition constant Ki worked out at 127 nM.
To `Cc1cc(Oc2ncnc3occc23)ccc1-c1c(C)ncc(=O)n1C` (single isomer, unassigned) [Example 5, (+)-6-[4-(furo[2,3-d]pyrimidin-4-yloxy)-2-methylphenyl]-1,5-dimethylpyrazin-2(1H)-one] belongs 400 nM; to `Cc1cc(Oc2ncnc3occc23)ccc1-c1c(C)n[nH]c(=O)c1C` (single isomer, unassigned) [Example 7, (+)-5-[4-(furo[2,3-d]pyrimidin-4-yloxy)-2-methylphenyl]-4,6-dimethylpyridazin-3(2H)-one], 30.7 nM.
For the molecule `Cc1cc(Oc2ncnc3occc23)ccc1-c1c(C)n[nH]c(=O)c1C` (single isomer, unassigned) [Example 8, (−)-5-[4-(furo[2,3-d]pyrimidin-4-yloxy)-2-methylphenyl]-4,6-dimethylpyridazin-3(2H)-one], the inhibition constant (Ki) is 40.2 nM.
As for `Cc1cc(Oc2ncnc3occc23)ccc1-c1c(C)ncc(=O)n1C` [Example 3, 6-[4-(furo[2,3-d]pyrimidin-4-yloxy)-2-methylphenyl]-1,5-dimethylpyrazin-2(1H)-one], the figure is 196 nM; as for `Cc1cc(Oc2ncnc3occc23)ccc1-c1c(C)n[nH]c(=O)c1C` [Example 6, 5-[4-(furo[2,3-d]pyrimidin-4-yloxy)-2-methylphenyl]-4,6-dimethylpyridazin-3(2H)-one], 44.7 nM; as for `Cc1c(-c2ccc(Oc3ncnc4occc34)cc2)n(C)c(=O)[nH]c1=O` [Example 9, 6-[4-(furo[2,3-d]pyrimidin-4-yloxy)phenyl]-1,5-dimethylpyrimidine-2,4(1H,3H)-dione], 142 nM.
To `Cc1cc(Oc2nccc3[nH]cnc23)ccc1-c1c(C)ncnc1C#N` [Example 12, 5-[4-(1H-imidazo[4,5-c]pyridin-4-yloxy)-2-methylphenyl]-6-methylpyrimidine-4-carbonitrile] belongs 367 nM.
`Cc1n[nH]c(=O)c(C)c1-c1ccc(Oc2ncnc3occc23)cc1` [Example 13, 5-[4-(furo[2,3-d]pyrimidin-4-yloxy)phenyl]-4,6-dimethylpyridazin-3(2H)-one]: the Ki turned out to be 70.3 nM.
Consider `Cc1cc(Oc2ncnc3occc23)ccc1-c1cn[nH]c(=O)c1C` [Example 14, 5-[4-(furo[2,3-d]pyrimidin-4-yloxy)-2-methylphenyl]-4-methylpyridazin-3(2H)-one], for which the Ki turned out to be 372 nM.
As for `Cc1c(-c2ccc(Oc3nccc4onc(C)c34)cc2)n(C)c(=O)[nH]c1=O` [Example 15, 1,5-dimethyl-6-{4-[(3-methyl[1,2]oxazolo[4,5-c]pyridin-4-yl)oxy]phenyl}pyrimidine-2,4(1H,3H)-dione], the figure is 280 nM; as for `Cc1cc(Oc2nccc3onc(C)c23)ccc1-c1c(C)n[nH]c(=O)c1C` [Example 16, 4,6-dimethyl-5-{2-methyl-4-[(3-methyl[1,2]oxazolo[4,5-c]pyridin-4-yl)oxy]phenyl}pyridazin-3(2H)-one, trifluoroacetic acid salt], 326 nM.
To `Cc1cc(Oc2nccc3onc(C)c23)ccc1-c1c(C)ncc(=O)n1C` [Example 17, 1,5-dimethyl-6-{2-methyl-4-[(3-methyl[1,2]oxazolo[4,5-c]pyridin-4-yl)oxy]phenyl}pyrazin-2(1H)-one, trifluoroacetic acid salt] belongs 1730 nM; to `CCc1c(-c2ccc(Oc3ncnc4occc34)cc2)n(C)c(=O)[nH]c1=O` [Example 18, 5-ethyl-6-[4-(furo[2,3-d]pyrimidin-4-yloxy)phenyl]-1-methylpyrimidine-2,4(1H,3H)-dione], 274 nM; to `COCCn1c(-c2ccc(Oc3ncnc4occc34)cc2)c(C)c(=O)[nH]c1=O` [Example 19, 6-[4-(furo[2,3-d]pyrimidin-4-yloxy)phenyl]-1-(2-methoxyethyl)-5-methylpyrimidine-2,4(1H,3H)-dione], 900 nM.
As for `CCn1c(-c2ccc(Oc3ncnc4occc34)cc2)c(C)c(=O)[nH]c1=O` [Example 20, 1-ethyl-6-[4-(furo[2,3-d]pyrimidin-4-yloxy)phenyl]-5-methylpyrimidine-2,4(1H,3H)-dione], the figure is 179 nM; as for `Cc1c(-c2ccc(Oc3ncnc4occc34)cc2)n(C2CC2)c(=O)[nH]c1=O` [Example 21, 1-cyclopropyl-6-[4-(furo[2,3-d]pyrimidin-4-yloxy)phenyl]-5-methylpyrimidine-2,4(1H,3H)-dione], 122 nM.
Regarding `CCc1c(-c2ccc(Oc3ncnc4occc34)cc2)n(C2CC2)c(=O)[nH]c1=O` [Example 22, 1-cyclopropyl-5-ethyl-6-[4-(furo[2,3-d]pyrimidin-4-yloxy)phenyl]pyrimidine-2,4(1H,3H)-dione], the Ki was 142 nM.
As for `CCc1c(-c2ccc(Oc3ncnc4occc34)cc2)n(CC)c(=O)[nH]c1=O` [Example 23, 1,5-diethyl-6-[4-(furo[2,3-d]pyrimidin-4-yloxy)phenyl]pyrimidine-2,4(1H,3H)-dione], the Ki amounted to 309 nM.
